# Test results reported in the supplement of paper PMC11061612.
# Tests used:
# Experiment in all cases: combination Emax (second highest fraction inhibited in the dose matrix, 72 h); higher = more inhibition; extreme values may be limits of the assay
# [1] = system: CESS (Acute Myeloid Leukemia)
# Outline: (§1)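 After 24 hours at 37°C and 5% CO2 in 1536-well plates, cells in DMEM/F12 or RPMI plus 10% FBS received two-drug dose matrices for 72 hours. Viability came from CellTiter-Glo 2.0 luminescence and was scaled as inhibition, anchored at 0 by vehicle wells and at 1 by blank wells. Combination Emax is taken as the second-highest inhibition in the matrix, and Bliss excess as the observed combination effect less EA + EB − EA·EB, with EA and EB the single-agent effects.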
# [2] = system: GA-10 (Burkitt's Lymphoma)
# Outline: as §1
# [3] = system: HCC1395 (Breast Carcinoma)
# Outline: as §1
# [4] = system: SW620 (Colorectal Carcinoma)
# Outline: as §1
# EB2 (Burkitt's Lymphoma) = system: EB2 (Burkitt's Lymphoma)
# Outline: as §1
# [5] = system: JHH-2 (Hepatocellular Carcinoma)
# Outline: as §1
# [6] = system: SK-HEP-1 (Hepatocellular Carcinoma)
# Outline: as §1
# [7] = system: GCT (Other Solid Carcinomas)
# Outline: as §1
# [8] = system: NCI-H441 (Lung Adenocarcinoma)
# Outline: as §1
# [9] = system: LU-165 (Small Cell Lung Carcinoma)
# Outline: as §1
# RH-41 (Rhabdomyosarcoma) = system: RH-41 (Rhabdomyosarcoma)
# Outline: as §1
# [10] = system: A2780 (Ovarian Carcinoma)
# Outline: as §1
# [11] = system: LS-411N (Colorectal Carcinoma)
# Outline: as §1
# [12] = system: MHH-ES-1 (Ewing's Sarcoma)
# Outline: as §1
# [13] = system: MDA-MB-436 (Breast Carcinoma)
# Outline: as §1
# [14] = system: CGTH-W-1 (Thyroid Gland Carcinoma)
# Outline: as §1
# [15] = system: CA46 (Burkitt's Lymphoma)
# Outline: as §1
# [16] = system: KYSE-140 (Esophageal Squamous Cell Carcinoma)
# Outline: as §1
# HCC70 (Breast Carcinoma) = system: HCC70 (Breast Carcinoma)
# Outline: as §1
# [17] = system: G-402 (Other Solid Carcinomas)
# Outline: as §1
SMILES,combination Emax [1],combination Emax [2],combination Emax [3],combination Emax [4],combination Emax (EB2 (Burkitt's Lymphoma)),combination Emax [5],combination Emax [6],combination Emax [7],combination Emax [8],combination Emax [9],combination Emax (RH-41 (Rhabdomyosarcoma)),combination Emax [10],combination Emax [11],combination Emax [12],combination Emax [13],combination Emax [14],combination Emax [15],combination Emax [16],combination Emax (HCC70 (Breast Carcinoma)),combination Emax [17]
"CS(=O)(=O)CCNCc1ccc(-c2ccc3ncnc(Nc4ccc(OCc5cccc(F)c5)c(Cl)c4)c3c2)o1 [Lapatinib] + C[C@@H](Oc1cc(-c2cnn(C3CCNCC3)c2)cnc1N)c1c(Cl)ccc(F)c1Cl [Crizotinib] (first compound max 10 µM, 7x7, partner max 10 µM)",0.896,0.98,0.906,0.921,0.768,0.882,0.255,0.903,0.6,0.441,0.991,0.98,0.584,0.912,0.248,0.853,0.861,0.881,0.685,0.879
"CC(=O)c1c(C)c2cnc(Nc3ccc(N4CCNCC4)cn3)nc2n(C2CCCC2)c1=O [Palbociclib] + CC1(C)CCC(CN2CCN(c3ccc(C(=O)NS(=O)(=O)c4ccc(NCC5CCOCC5)c([N+](=O)[O-])c4)c(Oc4cnc5[nH]ccc5c4)c3)CC2)=C(c2ccc(Cl)cc2)C1 [Venetoclax] (first compound max 10 µM, 7x7, partner max 1 µM)",0.651,0.95,0.0711,0.385,0.448,0.357,0.621,0.313,0.224,0.115,0.329,0.721,0.153,0.401,0.164,0.122,0.355,0.199,0.0684,0.442
"CC(=O)c1c(C)c2cnc(Nc3ccc(N4CCNCC4)cn3)nc2n(C2CCCC2)c1=O [Palbociclib] + Cc1c2c(nn1C)CSCc1cc(n(C)n1)CSc1cc(c3ccccc3c1)OCCCc1c(C(=O)O)n(C)c3c-2c(Cl)ccc13 [AZD5991] (first compound max 10 µM, 7x7, partner max 1 µM)",0.669,0.975,0.419,0.466,0.518,0.368,0.848,0.395,0.302,0.167,0.911,0.912,0.347,0.622,0.229,0.176,0.304,0.301,0.867,0.839
"CC(=O)c1c(C)c2cnc(Nc3ccc(N4CCNCC4)cn3)nc2n(C2CCCC2)c1=O [Palbociclib] + Cn1cnc2c(F)c(Nc3ccc(Br)cc3Cl)c(C(=O)NOCCO)cc21 [Selumetinib] (first compound max 10 µM, 7x7, partner max 10 µM)",0.658,0.941,0.0651,0.72,0.492,0.463,0.372,0.405,0.327,0.0618,0.269,0.825,0.715,0.352,0.224,0.14,0.345,0.188,0.269,0.462
"COc1cccc(OCCCN)c1-c1cc(Nc2cnc(C#N)cn2)n[nH]1 [Prexasertib] + C=CCn1c(=O)c2cnc(Nc3ccc(N4CCN(C)CC4)cc3)nc2n1-c1cccc(C(C)(C)O)n1 [AZD1775] (first compound max 1 µM, partner max 1 µM)",0.966,1,0.903,0.853,0.936,0.9,0.65,0.644,0.539,0.604,1,0.945,0.759,0.861,0.599,0.765,0.757,0.959,0.955,0.731
"COc1cccc(OCCCN)c1-c1cc(Nc2cnc(C#N)cn2)n[nH]1 [Prexasertib] + CCc1c2c(nc3ccc(O)cc13)-c1cc3c(c(=O)n1C2)COC(=O)[C@]3(O)CC [SN-38] (first compound max 1 µM, 7x7, partner max 0.3 µM)",0.983,1,0.898,0.975,0.976,0.95,0.761,0.842,0.712,0.642,1,0.857,0.867,1,0.693,0.832,0.837,0.945,0.944,0.868
"COc1cccc(OCCCN)c1-c1cc(Nc2cnc(C#N)cn2)n[nH]1 [Prexasertib] + CN(C)CCCOc1ccc(-c2ccc3ncc4c(c3c2)n(C2CCOCC2)c(=O)n4C)cn1 [AZD0156] (first compound max 1 µM, 7x7, partner max 1 µM)",0.975,1,0.857,0.696,0.909,0.837,0.379,0.324,0.513,0.561,0.944,0.673,0.782,0.722,0.41,0.777,0.745,0.959,0.922,0.562
"COc1cccc(OCCCN)c1-c1cc(Nc2cnc(C#N)cn2)n[nH]1 [Prexasertib] + C[C@@H]1COCCN1C2=NC(=NC(=C2)C3(CC3)[S@](=N)(=O)C)C4=C5C=CNC5=NC=C4 [AZD6738] (first compound max 1 µM, 7x7, partner max 10 µM)",0.978,1,0.86,0.744,0.92,0.854,0.462,0.315,0.544,0.565,0.97,0.825,0.795,0.693,0.473,0.711,0.599,0.959,0.908,0.605
"COc1cccc(OCCCN)c1-c1cc(Nc2cnc(C#N)cn2)n[nH]1 [Prexasertib] + Cc1cc2ncnn2cc1Nc1ncc2c(n1)n(C1CCOCC1)c(=O)n2C [AZD7648] (first compound max 1 µM, 7x7, partner max 10 µM)",0.971,1,0.855,0.698,0.92,0.891,0.296,0.36,0.505,0.58,0.964,0.737,0.753,0.742,0.431,0.725,0.653,0.953,0.922,0.58
"COc1cccc(OCCCN)c1-c1cc(Nc2cnc(C#N)cn2)n[nH]1 [Prexasertib] + O=C(c1cc(Cc2n[nH]c(=O)c3ccccc23)ccc1F)N1CCN(C(=O)C2CC2)CC1 [Olaparib] (first compound max 1 µM, 7x7, partner max 10 µM)",0.972,0.987,0.88,0.711,0.916,0.9,0.338,0.633,0.574,0.424,0.95,0.71,0.498,0.954,0.509,0.714,0.464,0.826,0.939,0.524
"CCc1c2c(nc3ccc(O)cc13)-c1cc3c(c(=O)n1C2)COC(=O)[C@]3(O)CC [SN-38] + CN(C)CCCOc1ccc(-c2ccc3ncc4c(c3c2)n(C2CCOCC2)c(=O)n4C)cn1 [AZD0156] (first compound max 0.3 µM, 7x7, partner max 1 µM)",0.984,0.913,0.512,0.883,0.948,0.7,0.63,0.683,0.614,0.517,0.719,0.726,0.363,1,0.572,0.771,0.758,0.305,0.2,0.745
"Cn1cnc2c(F)c(Nc3ccc(Br)cc3Cl)c(C(=O)NOCCO)cc21 [Selumetinib] + C=CCn1c(=O)c2cnc(Nc3ccc(N4CCN(C)CC4)cc3)nc2n1-c1cccc(C(C)(C)O)n1 [AZD1775] (first compound max 10 µM, partner max 1 µM)",0.944,1,0.425,0.731,0.785,0.536,0.315,0.384,0.41,0.261,0.974,0.799,0.794,0.726,0.311,0.0375,0.635,0.683,0.562,0.483
"Cn1cnc2c(F)c(Nc3ccc(Br)cc3Cl)c(C(=O)NOCCO)cc21 [Selumetinib] + CC(C)n1c(=O)n(C)c2cnc3cc(F)c(-c4ccc(OCCCN5CCCCC5)nc4)cc3c21 [AZD1390] (first compound max 10 µM, 7x7, partner max 0.3 µM)",0.243,0.165,0.192,0.615,0.0739,0.315,0.193,0.287,0.221,0.213,0.131,0.574,0.666,0.126,0.259,0.044,0.306,0.191,0.268,0.222
